Reference: ChEMBL document CHEMBL1131793, “Discovery of FR166124, a novel water-soluble pyrazolo-[1,5-a]pyridine adenosine A1 receptor antagonist” (Bioorg Med Chem Lett, 1999)

Experiments:
Adenosine receptor A1 = molecular target: T1, Adenosine receptor A1 (Rattus norvegicus, UniProt P25099); assay: Inhibitory activity against Adenosine A1 Receptor using [3H]CHA in rat cortical membranes; type: cell membranes
T1 sequence (P25099 whole entry): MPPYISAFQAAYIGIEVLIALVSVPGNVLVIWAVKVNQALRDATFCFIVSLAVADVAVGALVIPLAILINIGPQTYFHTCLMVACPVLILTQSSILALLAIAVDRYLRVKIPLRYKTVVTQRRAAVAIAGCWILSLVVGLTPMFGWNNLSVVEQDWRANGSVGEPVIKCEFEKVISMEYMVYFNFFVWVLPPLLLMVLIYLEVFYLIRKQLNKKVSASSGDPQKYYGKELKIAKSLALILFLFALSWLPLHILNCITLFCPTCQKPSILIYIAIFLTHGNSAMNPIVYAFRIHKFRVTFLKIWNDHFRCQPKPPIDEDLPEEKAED

Adenosine receptor A2a = Adenosine receptor A2a (Rattus norvegicus, UniProt P30543); assay: Inhibitory activity against Adenosine A2a receptor using [3H]NECA in rat striatal membranes; type: cell membranes, Striatum, Membrane
Chain of Adenosine receptor A2a (P30543 whole entry): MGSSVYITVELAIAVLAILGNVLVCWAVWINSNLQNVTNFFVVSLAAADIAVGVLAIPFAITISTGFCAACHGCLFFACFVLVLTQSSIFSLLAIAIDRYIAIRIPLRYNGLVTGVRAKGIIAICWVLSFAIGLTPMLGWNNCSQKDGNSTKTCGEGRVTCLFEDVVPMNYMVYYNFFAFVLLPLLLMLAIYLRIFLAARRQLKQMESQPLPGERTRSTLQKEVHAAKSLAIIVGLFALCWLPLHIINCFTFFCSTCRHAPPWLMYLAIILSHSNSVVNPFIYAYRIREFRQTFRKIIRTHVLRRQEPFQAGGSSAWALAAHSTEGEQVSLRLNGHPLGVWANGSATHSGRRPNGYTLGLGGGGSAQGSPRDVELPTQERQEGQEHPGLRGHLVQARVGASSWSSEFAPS

[1] = Water solubility was measured; type: ADME

| Structure (SMILES) | IC50 (Adenosine receptor A1) [nM] | IC50 (Adenosine receptor A2a) [µM] | solubility [1] [µg/mL] |
| --- | --- | --- | --- |
| O=C(O)CC1=C(n2nc(-c3c(-c4ccccc4)nn4ccccc34)ccc2=O)CCCCC1 | 16 | 5.5 | – |
| O=C(O)C[C@H]1CCCC[C@H]1n1nc(-c2c(-c3ccccc3)nn3ccccc23)ccc1=O | 34 | 5.5 | – |
| O=C(O)CC1=C(n2nc(-c3c(-c4ccccc4)nn4ccccc34)ccc2=O)CCC1 | 11 | 0.84 | – |
| O=C(/C=C/c1c(-c2ccccc2)nn2ccccc12)N1CCCC[C@@H]1CCO [FK453] | 17 | 11 | – |
| O=C([O-])CCCn1nc(-c2c(-c3ccccc3)nn3ccccc23)ccc1=O.[Na+] | – | – | 10000 |
| O=C([O-])CC1=C(n2nc(-c3c(-c4ccccc4)nn4ccccc34)ccc2=O)CCCC1.[Na+] | – | – | > 200000 |
| O=C(O)CCCn1nc(-c2c(-c3ccccc3)nn3ccccc23)ccc1=O | 120 | 5.9 | – |
| O=C(O)CC1=C(n2nc(-c3c(-c4ccccc4)nn4ccccc34)ccc2=O)CCCC1 | 15 | 6.2 | – |
| O=C(O)C[C@@H]1CCCC[C@H]1n1nc(-c2c(-c3ccccc3)nn3ccccc23)ccc1=O | 3.6 | 0.1 | – |
